Here are results for four compounds from patent US10517867B2, “Posaconazole derivative, pharmaceutical composition and use thereof” (priority 2016, dated 2019).

Data set [1] can be described thus: Pharmacokinetics after single intravenous administration to rats. The class given is in vivo, SD rats. The conditions noted are these: posaconazole in saline solution as a control, tail vein. The protocol: Administration amount: 2.5 mg/kg (calculated as posaconazole)
Administration volume: 2.5 ml/kg
Drug concentration: 1 mg/mL
Administration vehicle: normal saline
Administration route: tail vein injection
Experimental animals: SD rats, SPF grade, weighing 180-220 g, equal amount of male and female. Rats were randomly divided into groups of 6 with 3 males and 3 females.
Experimental protocol: blood samples were collected at different time points after tail vein administration and plasma posaconazole concentrations were measured.

The nature of data set [2]: Determination of solubility in deionized water (HPLC, external standard).
Data set [3] concerns Candida albicans ATCC10231. As to the kind of experiment: Systemic fungal infection in mice, intragastric administration. The conditions noted are these: for responders at 20 mg/kg: Candida albicans, ATCC10231, po. The class given is in vivo, ICR mice.
For data set [4], the system named is Aspergillus Fumigutus (AF) strains. As to the kind of experiment: Aspergillus fumigatus keratitis in rats, intravenous administration. The settings on record: 10 mg/kg tail vein once daily for 5 days; mean ± SD of 10 rats.
In data set [5] the test system is Candida albicans ATCC10231. As to the kind of experiment: Candida albicans vaginitis in mice, intravenous administration. The settings on record: logarithm of the CFU values, mean ± SD of 20 mice, 20 mg/kg.
Experimental: KM mice, weighing 18-22 g, female, provided by Hubei Experimental Animal Center.
The standard strain of Candida albicans was purchased from the American Type Culture
Collection, strain number ATCC10231.
Prior to being infected with Candida albicans, animals in each group were given subcutaneous injections of 0.5 ml of estradiol benzoate (2 mg/ml) for 6 consecutive days to allow them to enter the estrus phase. Injections were continued once every 2 days until the completion of the experiment. After 6 days, 20 μl of Candida albicans solution in a concentration of 3.5×10^6 CFU/ml was injected vaginally into each mouse, causing a vaginal infection model. From the first day after infection, each group of animals was given 20 mg/kg of the corresponding drug (calculated as posaconazole) in the tail vein at an administration volume of 0.1 ml/10 g once a day for 5 consecutive days. The model group was given an equal volume of solvent (physiological saline). On the 3rd and 5th days after infection, the vagina of mice were wiped with sterile cotton swabs. The cotton swabs were soaked in 0.9 ml physiological saline. The fungal solutions were diluted to 10-fold increments to give a series of concentrations, and then 100 μl of each concentration of the bacteria solutions was taken and inoculated on Sabourand's dextrose agar solid medium containing 0.5% (W/V) chloramphenicol to observe the fungal load of Candida albicans on the vagina.
The test system of data set [6] is Aspergillus fumigatus AF293. Put plainly: Lung Aspergillus fumigatus infection in immunosuppressed mice, intragastric administration. The conditions noted are these: mouse lung tissue, seven days later; 20 mg/kg intragastric once daily for 5 days; mean ± SD; 20 mg/kg.
Experimental: Aspergillus fumigatus AF293, from the Guangdong Provincial Microbial Culture Collection Center.
ICR male mice were injected intraperitoneally with cyclophosphamide 150 mg/kg and injected subcutaneously with dexamethasone 150 mg/kg for 10 consecutive days. At the same time, the blood was taken to measure the changes of peripheral white blood cells and neutrophils, and mice with neutrophils consistently lower than 100/μl were selected as successfully immunosuppressed mice. Immediately after the last injection, the mice were anesthetized with ethyl ether, and mice were transferred from the initial state of excitement to inhibition. After their bodies were relaxed, the mice were immediately taken. Left hand was used to grasp the mouse to make it stand upright, the middle finger pressed the mouth so that it could breath only with the nose, and the ring finger gently pressed the abdomen to move the diaphragm muscle upward. 30 μl of conidia suspension (Aspergillus fumigatus AF293, 3×10^6 conidia) was sent to the nostrils of the anesthetized mice by a micropipette to allow spontaneous inhalation. After the mouse returned to normal breathing, it was returned to the cage. […] Seven days later, the mice were sacrificed and their lung tissues were taken to observe the fungal loads of Aspergillus fumigatus in the lungs of the mice.
Data set [7] deals with Aspergillus fumigatus AF293. Put plainly: Lung Aspergillus fumigatus infection in immunosuppressed mice, intravenous administration. The settings on record: 20 mg/kg tail vein once daily for 5 days.
Experimental: ICR male mice were injected intraperitoneally with cyclophosphamide 150 mg/kg and injected subcutaneously with dexamethasone 150 mg/kg for 10 consecutive days. At the same time, the blood was taken to measure the changes of peripheral white blood cells and neutrophils, and mice with neutrophils consistently lower than 100/μl were selected as successfully immunosuppressed mice. Immediately after the last injection, the mice were anesthetized with ethyl ether, and mice were transferred from the initial state of excitement to inhibition. After their bodies were relaxed, the mice were immediately taken. Left hand was used to grasp the mouse to make it stand upright, the middle finger pressed the mouth so that it could breath only with the nose, and the ring finger gently pressed the abdomen to move the diaphragm muscle upward. 30 μl of conidia suspension (Aspergillus fumigatus AF293, 3×10^6 conidia) was sent to the nostrils of the anesthetized mice by a micropipette to allow spontaneous inhalation. After the mouse returned to normal breathing, it was returned to the cage. […] The death of the mice was observed and the survival time was recorded. Seven days later, the mice were sacrificed and their lung tissues were taken to observe the fungal loads of Aspergillus fumigatus in the lungs of the mice.
Data set [8] has as its system Candida albicans ATCC10231. As to the kind of experiment: Candida albicans vaginitis in mice, intragastric administration. The conditions noted are these: logarithm of the CFU values, mean ± SD of 20 mice, 20 mg/kg. The class given is in vivo, KM mice.
A further data set can be described thus: physchem. The settings on record: 25 °C, water, thermodynamic from solid.
A short description of data set [9]: In vitro metabolic stability in rat plasma. The settings on record: rat, plasma, 37° C., 10 μM compound, read-out: Rat plasma T1/2. The class given is in vitro ADME. Summed up: (§1)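 Human or rat plasma, preincubated 5 min at 37 °C, or intestinal S9 at 37 °C, spiked from 1 mM stock; triplicates sampled at 1, 2, 5, 15 and 30 min into cold internal standard. HPLC quantitation; half-life by non-compartmental analysis.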

The nature of data set [10]: In vitro metabolic stability in human plasma. The class given is in vitro ADME. The conditions noted are these: human, plasma, 37° C., 10 μM compound, read-out: Human plasma T1/2. Summed up: as §1
The nature of data set [11]: In vitro metabolic stability in human intestine S9. It counts as in vitro ADME. The conditions noted are these: human; 37° C., 10 μM compound, 1 mg/mL S9, NADPH regeneration system; read-out: Human intestine S9 T1/2. Summed up: as §1
Data set [12] in a line: In vitro metabolic stability in rat intestine S9. It counts as in vitro ADME. The settings on record: rat, pH 7.4; 37° C., 10 μM compound, 1 mg/mL S9, NADPH regeneration system; read-out: Rat intestine S9 T1/2. In outline: as §1

Each structure is given as a SMILES string. Read-outs that look alike come from different tables or passages of the source. A value given as a limit tells only on which side of the number the result lay.

As usually defined, the solubility is the concentration that dissolves in the medium under given conditions. Take `CC[C@@H]([C@H](C)O)n1ncn(-c2ccc(N3CCN(c4ccc(OC[C@@H]5CO[C@@](Cn6cncn6)(c6ccc(F)cc6F)C5)cc4)CC3)cc2)c1=O` [Posaconazole, posaconazole]: in data set [1], the plasma posaconazole detection result was “not detected”. The same compound had a solubility at 30 min in data set [2] (25 °C, water, thermodynamic from solid) of less than 1 mg/mL.

Usually Solubility stands for the concentration that dissolves in the medium under given conditions. With `CC[C@@H]([C@H](C)O)n1ncn(-c2ccc(N3CCN(c4ccc(OC[C@@H]5CO[C@@](Cn6c[n+](C(C)OC(=O)N(C)c7ncccc7COC(=O)[C@@H](N)CCCN)cn6)(c6ccc(F)cc6F)C5)cc4)CC3)cc2)c1=O` (stereo partly drawn) [ST0011], the “survival rate of mice, day 1” value in [3] (20 mg/kg intragastric once daily for 5 days, day 1) was found to be 100%; in [7] (day 1), 100%. The “survival rate of mice, day 2” value in data set [3] (20 mg/kg intragastric once daily for 5 days, day 2) is reported as 100%; in [7] (day 2) it was 100%. Further, the “survival rate of mice, day 3” value in data set [3] (20 mg/kg intragastric once daily for 5 days, day 3) was 90%; in data set [7] (day 3), 100%. Also, the “survival rate of mice, day 4” value in data set [3] (20 mg/kg intragastric once daily for 5 days, day 4) stood at 80%; in data set [7] (day 4) it was 100%. In addition, the “survival rate of mice, day 5” value in [3] (20 mg/kg intragastric once daily for 5 days, day 5) was 70%; in [7] (day 5), 90%. In addition, the “survival rate of mice, day 6” value was found to be 60% in data set [3] (20 mg/kg intragastric once daily for 5 days, day 6) and 90% in data set [7] (day 6). For the same compound, the “survival rate of mice, day 7” value in [3] (20 mg/kg intragastric once daily for 5 days, day 7) is given as 60%. In addition, the “Amount of active fungi in cornea at day 7” value in data set [4] is reported as 1.79 ± 0.44 10^3 CFU/ml. Moreover, the “vaginal fungal load of mice, day 5” value in [5] (20 mg/kg tail vein once a day for 5 days, day 5 after infection) was 3.75 ± 0.47; in [8] (20 mg/kg intragastric once a day, day 5), 4.35 ± 0.47. In addition, the “vaginal fungal load of mice, day 3” value was determined as 4.09 ± 0.39 in data set [5] (20 mg/kg tail vein once a day, day 3 after infection) and 4.18 ± 0.27 in data set [8] (20 mg/kg intragastric once a day, day 3). For the same compound, the lung fungal load is 3.47 ± 0.71 10^4 CFU/ml in data set [6] and 1.46 ± 0.27 10^4 CFU/ml in data set [7] (mouse lung tissue, seven days later, mean ± SD, 20 mg/kg). The same compound returned a Solubility in [2] (25±2° C., after 30 min) greater than 50 mg/mL. Further, the “vaginal fungal load of mice, day 15” value in data set [8] (20 mg/kg intragastric once a day for 15 days, day 15) was 2.81 ± 0.27. Besides, the “vaginal fungal load of mice, day 7” value in data set [8] (20 mg/kg intragastric once a day, day 7) was determined as 3.85 ± 0.67. In addition, in data set [8] (20 mg/kg intragastric once a day, day 11), the “vaginal fungal load of mice, day 11” value is reported as 3.29 ± 0.20.

Regarding `CC[C@@H]([C@H](C)O)n1ncn(-c2ccc(N3CCN(c4ccc(OC[C@@H]5CO[C@@](Cn6c[n+](C(C)OC(=O)OP(=O)(O)O)cn6)(c6ccc(F)cc6F)C5)cc4)CC3)cc2)c1=O.[Na+].[Na+]` (stereo partly drawn) [ST0039], the Solubility in the data set “physchem” was greater than 50 mg/mL.

With `CC[C@@H](C(C)OC(=O)OC(C)OC(=O)CCOP(=O)([O-])[O-])n1ncn(-c2ccc(N3CCN(c4ccc(OC[C@@H]5CO[C@@](Cn6cncn6)(c6ccc(F)cc6F)C5)cc4)CC3)cc2)c1=O.[Na+].[Na+]` (stereo partly drawn) [ST0066], the responders at 20 mg/kg in data set [3] (24 h, read-out: survival rate of mice, day 1, 20 mg/kg intragastric once daily for 5 days, day 1) turned out to be 80%; in data set [3] (48 h, read-out: survival rate of mice, day 2, 20 mg/kg intragastric once daily for 5 days, day 2) it was 80%; in data set [3] (72 h, read-out: survival rate of mice, day 3, 20 mg/kg intragastric once daily for 5 days, day 3) it was 70%; in [3] (96 h, read-out: survival rate of mice, day 4, 20 mg/kg intragastric once daily for 5 days, day 4) it was 70%; in [3] (120 h, read-out: survival rate of mice, day 5, 20 mg/kg intragastric once daily for 5 days, day 5), 70%; in data set [3] (144 h, read-out: survival rate of mice, day 6, 20 mg/kg intragastric once daily for 5 days, day 6), 60%. In addition, the responders at 20 mg/kg in data set [3] (168 h, read-out: survival rate of mice, day 7, 20 mg/kg intragastric once daily for 5 days, day 7) was found to be 60%. The half-life at 10 µM stood at 12.6 ± 4.54 min in [9], 11.3 ± 2.27 min in data set [10], 40.4 ± 5.21 min in data set [11] and 36.6 ± 8.66 min in [12]. This compound also gave a Solubility in “physchem” greater than 50 mg/mL.
